From patent US20260317332A1, “BICYCLIC HETEROCYCLE COMPOUNDS FOR THE TREATMENT OF CANCER” (Hoffmann-La Roche Inc., priority 2023, published 2026)

Tests used:
CD4+ T cells = test: T Cell Proliferation Assay: CD4+ T cell proliferation; type: cell-based; conditions: Homo sapiens, high AMP condition (200 μM AMP, 5 μM EHNA), CD3/CD28 beads, 72 hours, read-out: CD4+ T cell proliferation EC50 (rescue of proliferation)
Procedure: (§1) The purpose of this assay is to characterize the potency of inhibitors of CD73 in rescuing adenosine-mediated inhibition of T cell proliferation. CD4+ or CD8+ T cells were isolated from peripheral blood mononuclear cells (PBMCs, HemaCare) by immunomagnetic negative selection using EasySep™ Isolation Kit (STEMCELL Technologies) following the supplier's protocol. Pan T cells were pelleted by centrifugation at 300 gravitational force (g) for 5 minutes at room temperature and re-suspended in PBS. CellTrace™ Violet staining solution (Invitrogen) was added at 1:5,000 and incubated at 37° C. for 20 minutes, protected from light. Complete culture medium [RPMI-1640 (Gibco), 10% Fetal Bovine Serum (Gibco), 2 mM GlutaMAX (Gibco) and 1 mM Sodium Pyruvate (Gibco), 100 U/mL Penicillin-Streptomycin (Gibco) and MEM non-essential amino acids (NEAA) cell culture supplement (1:100, Gibco)] was then added, mixed, and incubated at 37° C. for 5 minutes. Cells were then pelleted by centrifugation at 300 g for 5 minutes at room temperature and re-suspended in fresh, pre-warmed complete culture medium. 50 μL of cells were seeded per well in 96 well u-bottom plates. 50 μL of CD3/CD28 beads-containing medium and 50 μL of media containing compounds were added into cells. 50 μL of media containing AMP and EHNA hydrochloride (Sigma-Aldrich) was added into cells at 200 μM and 5 μM final concentration, respectively. Cells were incubated for 72 hours at 37° C. in a 5% CO2 incubator. 200 μL of PBS was then added to each well and cells were centrifuged at 300 g, 4° C. for 10 minutes. The supernatant was discarded. 50 μL of Human TruStain FcX™ (Fc Receptor Blocking Solution, BioLegend) diluted 1:100 in PBS was added to each well, mixed gently and incubated for 20 minutes at 4° C. 50 μL of staining solution (BioLegend) was added to each well, mixed gently and incubated at 4° C. for 30 minutes. Cells were centrifuged at 300 g, 4° C. for 10 minutes and the supernatant was discarded. The cell pellets were washed with 250 μL of cell staining buffer and centrifuged at 300 g, 4° C. for 10 minutes. The supernatant was discarded and cells were re-suspended in 60 μL of cell staining buffer and analyzed on a flow cytometer.

CD8+ T cells = test: T Cell Proliferation Assay: CD8+ T cell proliferation; type: cell-based; conditions: high AMP condition (200 μM AMP, 5 μM EHNA), CD3/CD28 beads, 72 hours, read-out: CD8+ T cell proliferation EC50 (rescue of proliferation)
Procedure: as §1

CD73 [1] = molecular target: T1, CD73 (Homo sapiens, UniProt P21589); test: CD73 Cellular Assay; type: cell-based; parameters: 40 μL of MDA-MB-231 cells (ATCC, HTB-26, breast cancer); host or cells: MDA-MB-231; conditions: MDA-MB-231 cells; 200 μM AMP working solution; 45 min at 37° C.; malachite readout; read-out: Cellular IC50 against CD73
T1 sequence (P21589 27-574): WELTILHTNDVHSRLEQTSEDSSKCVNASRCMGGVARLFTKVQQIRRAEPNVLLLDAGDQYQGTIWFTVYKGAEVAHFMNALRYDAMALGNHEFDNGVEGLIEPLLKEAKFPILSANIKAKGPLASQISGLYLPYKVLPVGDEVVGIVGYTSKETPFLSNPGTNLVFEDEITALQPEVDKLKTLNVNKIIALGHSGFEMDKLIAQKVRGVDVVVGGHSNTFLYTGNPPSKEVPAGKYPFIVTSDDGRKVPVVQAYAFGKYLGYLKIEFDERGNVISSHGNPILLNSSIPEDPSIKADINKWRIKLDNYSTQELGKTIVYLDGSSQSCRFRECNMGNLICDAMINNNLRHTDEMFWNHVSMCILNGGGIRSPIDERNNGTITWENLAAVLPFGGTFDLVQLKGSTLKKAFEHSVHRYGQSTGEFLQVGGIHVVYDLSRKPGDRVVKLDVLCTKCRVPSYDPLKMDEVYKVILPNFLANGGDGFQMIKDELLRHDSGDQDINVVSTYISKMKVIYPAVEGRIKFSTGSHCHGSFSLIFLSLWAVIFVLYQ
Procedure: Compound serial dilution (1:3) was prepared with Echo 555 liquid handler (Labcyte) into the corresponding wells of a 384-well plate. 40 μL of MDA-MB-231 cells (ATCC, HTB-26, breast cancer, final concentration at 20,000 cells/mL) suspended in assay buffer (20 mM HEPES pH 7.4, 137 mM NaCl, 5.4 mM KCl, 1.3 mM CaCl2, 4.2 mM NaHCO3, 1 mg/mL glucose) were added into the corresponding wells of the plate. After incubating with compounds for 30 minutes, 40 μL of AMP working solution (200 μM AMP in assay buffer) was added into each well in the assay plate. The assay plate was then incubated in a 5% CO2 incubator (Thermo Fisher Scientific) at 37° C. for 45 min. After the reaction was completed, 50 μL of the supernatants was collected and transferred into a new 384 well plate. 10 μL of Malachite A was added to each well in the assay plate and incubated for 10 minutes. 10 μL of Malachite B was then added to each corresponding well of the plate and incubated for 30 minutes. Finally the absorbance value was read on the Envision plate reader at […]. Calculation percentage inhibition by using equation {% inhibition=100×[1−(X−MIN)/(MAX−MIN)]} where X equals to the well signal, Max equals signal of neutral control and MIN equals signal of inhibitor control.

CD73 [2] = molecular target: T1, CD73; test: Human CD73 Biochemical Assay; conditions: 0.05 nM recombinant CD73; AMP 5.56 μM final; 10 min at room temperature; LC/MS adenosine readout; read-out: Enzymatic IC50 against human CD73
Procedure: The purpose of this assay is to identify and characterize inhibitors of human CD73 enzymatic activity. Compound serial dilution (1:3) was prepared with Echo 555 liquid handler (Labcyte) into the corresponding wells of a 384-well plate. 10 μL of enzyme working solution (containing 0.05 nM recombinant CD73 protein, 10 mM Tris pH 7.5, 100 mM NaCl, 0.01% BSA, 0.2 mM Octyl glucoside and 1 mM NaH2PO4) was added to the assay plate and incubated with compounds for 15 minutes at room temperature. After adding 15 μL of AMP working solution (Containing 10 mM Tris pH 7.5, 100 mM NaCl, 0.01% BSA, 0.2 mM Octyl glucoside, with 5.56 μM of AMP final concentration) and incubate for 10 min at room temperature. Stop the reaction by adding 75 μL of stop solution (5% TCA in H2O containing 250 nM 13C5-adenosine) to each well for 10 min incubation. After centrifugation, 75 μL of the mixture was transferred to a new 384-well plate for LC/MS analysis.
Samples from the 384-well plates, were loaded onto an autosampler deck, then injected with ADDA-LC-MS/MS. The aqueous mobile phase is 0.1% formic acid in water. The organic mobile phase is 0.1% formic acid in acetonitrile. Flow rate is maintained at 0.8 mL/minute using Shimadzu pumps. The column is ACE 5 Phenyl, 50×2.1 mm. The analysis was performed on a SCIEX triple quadrupole mass spectrometer operating in positive ion mode. The effluent from the HPLC column was directly introduced into the electrospray ionization (ESI). Multiple reaction monitoring (MRM) is used to determine analyte and internal standard (IS) responses. The MRM for adenosine is 268.1/136.1, for 13C5-Adenosine (IS) is 273.2/136.2. The data is calculated using the peak area ratio (PAR) semi-quantitative method.

What does the source list for O=c1[nH]cc(-c2cc(N3C[C@H](Oc4ncc(C(F)(F)F)cn4)C(F)(F)C3)c3nccn3n2)c(=O)[nH]1 [Example G351, reference compound]?
EC50 (CD4+ T cells): 8.8 nM; EC50 (CD8+ T cells): 8.2 nM; IC50 (CD73 [1]): 3.53 nM

Which results are given for Cn1nc(O[C@H](c2ccnc(NC3CCC(F)(F)CC3)c2)C(F)F)c2cc(-c3c[nH]c(=O)[nH]c3=O)nnc21 [Example 32, 5-[3-[(1R)-1-[2-[(4,4-difluorocyclohexyl)amino]-4-pyridyl]-2,2-difluoro-ethoxy]-1-methyl-pyrazolo[3,4-c]pyridazin-5-yl]-1H-pyrimidine-2,4-dione]?
IC50 (CD73 [2]): 0.05 nM; IC50 (CD73 [1]): 0.38 nM

Which results are given for Cn1nc(O[C@H](c2cc(OCC#N)ccn2)C(F)F)c2cc(-c3c[nH]c(=O)[nH]c3=O)nnc21 [Example 21, 2-[[2-[(1R)-1-[5-(2,4-dioxo-1H-pyrimidin-5-yl)-1-methyl-pyrazolo[3,4-c]pyridazin-3-yl]oxy-2,2-difluoro-ethyl]-4-pyridyl]oxy]acetonitrile]?
IC50 (CD73 [2]): 0.09 nM; IC50 (CD73 [1]): 0.73 nM

Which IC50 (CD73 [2]) does the source give for Cn1nc(O[C@H](c2cc(OCC(F)F)ccn2)C(F)F)c2cc(-c3c[nH]c(=O)[nH]c3=O)nnc21 [Example 7, 5-[3-[(1R)-1-[4-(2,2-difluoroethoxy)-2-pyridyl]-2,2-difluoro-ethoxy]-1-methyl-pyrazolo[3,4-c]pyridazin-5-yl]-1H-pyrimidine-2,4-dione] here?
Its IC50 is 0.08 nM.

What about the IC50 (CD73 [1]) of the same compound?
The IC50 was 0.59 nM.

Which IC50 (CD73 [2]) does the source give for Cn1nc(O[C@H](c2ccnc(OCC(F)F)c2)C(F)F)c2cc(-c3n[nH]c(=O)[nH]c3=O)nnc21 [Example 13A, 6-[3-[(1R)-1-[2-(2,2-difluoroethoxy)-4-pyridyl]-2,2-difluoro-ethoxy]-1-methyl-pyrazolo[3,4-c]pyridazin-5-yl]-2H-1,2,4-triazine-3,5-dione] here?
Its IC50 is 0.02 nM.

And the IC50 (CD73 [1])?
Its IC50 is 0.97 nM.

With Cn1nc(O[C@H](c2cc(OCC3(C(F)(F)F)CC3)ccn2)C(F)F)c2cc(-c3c[nH]c(=O)[nH]c3=O)nnc21 [Example 23, 5-[3-[(1R)-2,2-difluoro-1-[4-[[1-(trifluoromethyl)cyclopropyl]methoxy]-2-pyridyl]ethoxy]-1-methyl-pyrazolo[3,4-c]pyridazin-5-yl]-1H-pyrimidine-2,4-dione] as the compound, how does the IC50 (CD73 [2]) read?
The IC50 was 0.08 nM.

And the IC50 (CD73 [1])?
Its IC50 is 0.74 nM.

What does the source list for C[C@H]1COC[C@@H]1Oc1cc([C@@H](Oc2nn(C)c3nnc(-c4c[nH]c(=O)[nH]c4=O)cc23)C(F)F)ccn1 (stereo in doubt) [Example 40, 5-[1-methyl-3-[(1R)-2,2-difluoro-1-[2-[(trans)-4-methyltetrahydrofuran-3-yl]oxy-4-pyridyl]ethoxy]pyrazolo[3,4-c]pyridazin-5-yl]-1H-pyrimidine-2,4-dione]?
IC50 (CD73 [2]): 0.05 nM; IC50 (CD73 [1]): 0.57 nM

Cn1nc(O[C@H](c2ccnc(N3CCC(F)(F)CC3)c2)C(F)F)c2cc(-c3c[nH]c(=O)[nH]c3=O)nnc21 [Example 31, 5-[3-[(1R)-1-[2-(4,4-difluoro-1-piperidyl)-4-pyridyl]-2,2-difluoro-ethoxy]-1-methyl-pyrazolo[3,4-c]pyridazin-5-yl]-1H-pyrimidine-2,4-dione] was tested. Which IC50 (CD73 [2]) did it give?
Its IC50 is 0.05 nM.

What about the IC50 (CD73 [1]) of the same compound?
Its IC50 is 0.55 nM.

Cn1nc(O[C@H](c2cncc(OCC(F)(F)F)c2)C(F)F)c2cc(-c3c[nH]c(=O)[nH]c3=O)nnc21 (single isomer, unassigned) [Example 8A] was tested. Which IC50 (CD73 [2]) did it give?
Its IC50 is 0.07 nM.

And the IC50 (CD73 [1])?
Its IC50 is 0.66 nM.

Which IC50 (CD73 [2]) does the source give for COCCOc1cc([C@@H](Oc2nn(C)c3nnc(-c4c[nH]c(=O)[nH]c4=O)cc23)C(F)F)ccc1F [Example 15, 5-[3-[(1R)-2,2-difluoro-1-[4-fluoro-3-(2-methoxyethoxy)phenyl]ethoxy]-1-methyl-pyrazolo[3,4-c]pyridazin-5-yl]-1H-pyrimidine-2,4-dione] here?
The IC50 was 0.07 nM.

And the IC50 (CD73 [1])?
Its IC50 is 0.88 nM.

How did the IC50 (CD73 [2]) turn out when Cn1nc(O[C@H](c2cc(OCC(F)(F)F)c(F)cn2)C(F)F)c2cc(-c3c[nH]c(=O)[nH]c3=O)nnc21 [Example 9A, 5-[3-[(1R)-2,2-difluoro-1-[5-fluoro-4-(2,2,2-trifluoroethoxy)-2-pyridyl]ethoxy]-1-methyl-pyrazolo[3,4-c]pyridazin-5-yl]-1H-pyrimidine-2,4-dione] was run?
The IC50 was 0.11 nM.

What about the IC50 (CD73 [1]) of the same compound?
Its IC50 is 0.73 nM.

How did the IC50 (CD73 [2]) turn out when CCOc1ccnc([C@@H](Oc2nn(C)c3nnc(-c4c[nH]c(=O)[nH]c4=O)cc23)C(F)F)c1 [Example 20, 5-[3-[(1R)-1-(4-ethoxy-2-pyridyl)-2,2-difluoro-ethoxy]-1-methyl-pyrazolo[3,4-c]pyridazin-5-yl]-1H-pyrimidine-2,4-dione] was run?
Its IC50 is 0.06 nM.

What about the IC50 (CD73 [1]) of the same compound?
The IC50 was 0.49 nM.

How did the IC50 (CD73 [2]) turn out when C[C@H](OC1CC1)c1cc([C@@H](Oc2nn(C)c3nnc(-c4c[nH]c(=O)[nH]c4=O)cc23)C(F)F)ccn1 (single isomer, unassigned) [Example 37A] was run?
Its IC50 is 0.13 nM.

And the IC50 (CD73 [1])?
Its IC50 is 0.87 nM.
